Source: US20100016421A1, “METHODS FOR DETERMINING SENSITIVITY TO AMINOFLAVONES” (priority 2008, published 2010)
Read-outs that look alike come from different tables or passages of the source. Values belong to the compound of their own block, whether it stands above or below them.

Key:
MCF-7 = assay: MTT assay, MCF-7 breast cancer cell line; assay type: cell-based, human; details: for IC50: Homo sapiens, MCF7
Method: (§1) The breast cancer cell lines shown in Table 2 were screened to determine the localization of the aryl hydrocarbon receptor (AhR) in accordance with the techniques discussed above. MTT assays were conducted to measure cell death on various breast cancer cell lines.
(§2) The inhibitory concentration 50% were determined by MTT assay and following the NCI DTP in vitro testing procedures (http://dtp.nci.nih.gov/branches/btb/ivclsp.html). Three independent MTT in vitro tumor cell growth inhibition experiments were conducted and a mean IC50 value generated as shown in Table 4.

MCF-7 HER2-18 = assay: MTT assay, MCF-7 HER2-18 cell line; assay type: cell-based, human; details: for IC50: Homo sapiens
Method: as §1, §2

MCF-7 TAM1 = assay: MTT assay, MCF-7 TAM1 cell line; assay type: cell-based, human; details: for IC50: Homo sapiens, MCF7:TAM1
Method: as §1, §2

T47D = assay: MTT assay, T47D breast cancer cell line; assay type: cell-based, human; details: for IC50: Homo sapiens
Method: as §1, §2

MDA-MB-231 = assay: MTT assay, MDA-MB-231 breast cancer cell line; assay type: cell-based, human; details: for IC50: Homo sapiens
Method: as §1, §2

MCF10A = assay: MTT assay, MCF10A normal breast cell line; assay type: cell-based, human; details: for IC50: Homo sapiens, MCF-10A
Method: as §1, §2

HCC1937 = assay: MTT assay, HCC1937 breast cancer cell line; assay type: cell-based; details: Homo sapiens
Excerpt: (§3) AhR localization correlates with cytotoxic activity of AFP464, as discussed above. […] The growth curves for all three cell lines resulting from 5 day continuous exposure of the cells to AFP464 in 96-well plates and the detection of cell growth by conversion of methyltetrazolium into formazan by viable cells (MTT assay) are shown. All cell lines in FIG. 3 have defects in the BRCA tumor suppressor genes responsible for very aggressive forms of hereditary breast and ovarian cancer. MX-1 have BRCA1 deletions and BRCA2 mutations, HCC1937 are BRCA1 mutant and completely defective, IGROV1 are defective for BRCA2 (±).
as §2

Hs578t = assay: MTT assay, Hs578t breast cancer cell line; assay type: cell-based, human
Method: as §2

BT 20 = assay: MTT assay, BT 20 breast cancer cell line; assay type: cell-based; details: Homo sapiens; BT 20, mean of three independent MTT experiments; read-out: AF IC50
Method: as §2

MDA-MB-468 = assay: MTT assay, MDA-MB-468 breast cancer cell line; assay type: cell-based; details: Homo sapiens; MDA-MB-468, mean of three independent MTT experiments; read-out: AF IC50
Method: as §2

SKBR3 = assay: MTT assay, SKBR3 breast cancer cell line; assay type: cell-based; details: Homo sapiens, SK-BR-3; SKBR3, mean of three independent MTT experiments; read-out: AF IC50
Method: as §2

[1] = tested on: ER-negative, or “triple-negative,” or basal B breast cancer cell lines; assay: Sensitivity to aminoflavone after HDAC inhibitor pre-treatment; assay type: cell-based; details: Homo sapiens
[2] = tested on: SKBR3, T47D, MCF-7, MCF-7 Tam1, and MCF-7 Her2-18 cell lines; assay: MTT assay, luminal type cell lines (summary); assay type: cell-based; details: Homo sapiens; range over luminal type cell lines; read-out: AF IC50 concentrations
Method: as §2
(§4) The SKBR3, T47D, MCF-7, MCF-7 Tam1, and MCF-7 Her2-18 cell lines are all of a luminal type gene cluster. […] Based on previous NCI cell line screen results discussed above, ER-negative tumors were thought to be resistant to aminoflavone. […] Thus, the gene profile relating to ER status alone may not predict the sensitivity of the tumor to treatment with AF. AFP464 is not only effective in ER-positive breast cancer cells, which are always of luminal type histologies, but are also effective in the basal A subtype of ER-negative breast cancers.

[3] = tested on: HCC1937, BT 20, MDA-MB-468, and SKBR3 ER-negative tumor cells; assay: MTT assay, sensitive ER-negative cell lines (summary); assay type: cell-based; details: Homo sapiens; range over sensitive ER-negative cell lines; read-out: AF IC50 concentrations
Method: as §2, §4

OVCAR-8 = assay: Cytotoxicity, OVCAR-8 ovarian cancer cell line; assay type: cell-based; details: Homo sapiens
Excerpt: (§5) Similarly, the ovarian cancer cell lines shown in Table 3 were screened to determine the localization of the Aryl hydrocarbon receptor (AhR). As shown below, and further illustrated in FIGS. 2 and 3, all cell lines where the AhR is localized predominantly in the cytoplasm (e.g. OVCAR-3 and IGROV-1) were more sensitive to treatment with AFP464 than tumor cells where the AhR is localized predominantly in the nucleus (e.g., OVCAR-8).

ADDP = assay: Cytotoxicity, ADDP ovarian cancer cell line; assay type: cell-based; details: Homo sapiens
Excerpt: as §5

AG6000 = assay: Cytotoxicity, AG6000 ovarian cancer cell line; assay type: cell-based; details: Homo sapiens
Excerpt: as §5

A2780 = assay: Cytotoxicity, A2780 ovarian cancer cell line; assay type: cell-based; details: Homo sapiens
Excerpt: as §5

OVCAR-3 = assay: Cytotoxicity, OVCAR-3 ovarian cancer cell line; assay type: cell-based; details: Homo sapiens
Excerpt: as §5

IGROV-1 = assay: Cytotoxicity (MTT), IGROV-1 ovarian cancer cell line; assay type: cell-based; details: Homo sapiens
Excerpt: as §5, §3

MX-1 = assay: MTT assay, MX-1 triple negative breast cancer cell line; assay type: cell-based; details: Homo sapiens, MX1, 120 h, MX-1, 5 day continuous exposure
Excerpt: as §3

γ-H2AX foci in MCF-7 = assay: Immunofluorescence of phosphorylated γ-H2AX, MCF-7; assay type: cell-based, human
Excerpt: (§6) The phosphorylated γ-H2AX is an indicator of a DNA-damage response in cells.

[4] = tested on: γ-H2AX foci in MCF-7 HER2-18; assay: Immunofluorescence of phosphorylated γ-H2AX, MCF-7 HER2-18; assay type: cell-based, human
Excerpt: as §6

[5] = tested on: γ-H2AX foci in MCF-7 TAM1; assay: Immunofluorescence of phosphorylated γ-H2AX, MCF-7 TAM1; assay type: cell-based, human
Excerpt: as §6

γ-H2AX foci in T47D = assay: Immunofluorescence of phosphorylated γ-H2AX, T47D; assay type: cell-based, human
Excerpt: as §6

[6] = tested on: γ-H2AX foci in MDA-MB-231; assay: Immunofluorescence of phosphorylated γ-H2AX, MDA-MB-231; assay type: cell-based, human
Excerpt: as §6

γ-H2AX foci in MCF10a = assay: Immunofluorescence of phosphorylated γ-H2AX, MCF10a; assay type: cell-based, human
Excerpt: as §6

Maximum tolerated dose = details: mouse, in vivo, iv; intravenously
Method: Next, the treatment and data evaluation will be discussed. […] The maximum tolerated dose (MTD) for AFP464 was determined prior to initiation of the experiment as 75 mg/kg/d intravenously. […]. […] AFP464 was given on days 1, 3, 5, 15, 17, and 19.

ER-positive cell lines = details: NCI 60 screen, read-out: sensitivity (order of magnitude); cited from earlier work
CYP1A1 = assay: Real time PCR of CYP1A1 expression, MDA-MB-231
CYP1B1 = assay: Real time PCR of CYP1B1 expression, MDA-MB-231
[7] = tested on: human tumor xenograft MDA-MB-231; assay: MDA-MB-231 subcutaneous xenograft in nude mice
ERα in MDA-MB-231 = assay: Western blot of ERα induction, MDA-MB-231; assay type: cell-based, human; details: MDA-MB-231, 60 hours at […] and 13.5 μM
Method: Lane 1 of each of FIGS. 4A and 4B is a control in which the respective cells were treated with DMSO.

[8] = in mice; cited from earlier work
[9] = mean of three independent MTT experiments, read-out: AF IC50
[10] = MDA-MB-231, SAHA for 48 hours followed by AFP464 for 6 hours
[11] = MDA-MB-231, SAHA for 48 hours followed by AFP464 for 24 hours

IC50 (MCF-7; MCF-7, mean of three independent MTT experiments, read-out: AF IC50): 16 nM
IC50 (MCF-7 HER2-18; MCF-7 Her2-18, mean of three independent MTT experiments, read-out: AF IC50): 20 nM
IC50 (MCF-7 TAM1; MCF-7 Tam1, mean of three independent MTT experiments, read-out: AF IC50): 25 nM
IC50 (T47D; [9]): 14 nM
IC50 (MDA-MB-231; MDA-MB-231, mean of three independent MTT experiments, read-out: AF IC50): 25000 nM
IC50 (HCC1937; HCC1937, mean of three independent MTT experiments, read-out: AF IC50): 10 nM
IC50 (Hs578t; Homo sapiens, Hs-578T, Hs578t, mean of three independent MTT experiments, read-out: AF IC50): 20000 nM
IC50 (BT 20): 20 nM
IC50 (MDA-MB-468): 12 nM
IC50 (SKBR3): 16 nM
IC50 [1]: ~1000 nM
IC50 [2]: 16 to 20 nM
IC50 [3]: 10 to 20 nM
SMILES: Cc1c(F)c(N)c2c(=O)cc(-c3ccc(N)c(F)c3)oc2c1F [AF, aminoflavone]
IC50 (MCF10A; [9]): 3000 nM

SMILES: Cc1c(F)c(N)c2c(=O)cc(-c3ccc(NC(=O)[C@@H](N)CCCCN)c(F)c3)oc2c1F [AFP464]
IC50 (MCF-7; MCF-7, MTT, read-out: IC50): 16 nM
IC100 (MCF-7; MCF-7, MTT): 300 nM
IC50 (MCF-7 HER2-18; MCF-7 HER2-18, MTT, read-out: IC50): 20 nM
IC100 (MCF-7 HER2-18; MCF-7 HER2-18, MTT): 375 nM
IC50 (MCF-7 TAM1; MCF-7 TAM1, MTT, read-out: IC50): 25 nM
IC100 (MCF-7 TAM1; MCF-7 TAM1, MTT): 200 nM
IC50 (T47D; MTT, read-out: IC50): 14 nM
IC100 (T47D; MTT): 20 nM
IC50 (MDA-MB-231; MDA-MB-231, MTT, read-out: IC50): 25000 nM
IC100 (MDA-MB-231; MDA-MB-231, MTT): >100 µM
IC50 (MCF10A; MTT, read-out: IC50): 3000 nM
IC100 (MCF10A; MTT): 9 µM
IC50 (OVCAR-8): 13000 nM
IC50 (ADDP): 2500 nM
IC50 (AG6000): > 10000 nM
IC50 (A2780): 5000 nM
IC50 (OVCAR-3): 252 nM
IC50 (IGROV-1; IGROV-1): 420 nM
IC50 (IGROV-1; IGROV-1, 120 h, IGROV1, 5 day continuous exposure, MTT): 10 to 200 nM
IC50 (MX-1): 30000 nM
IC50 (HCC1937; 120 h, HCC1937, 5 day continuous exposure, MTT, read-out: IC50): 10 to 200 nM
γ-H2AX Foci (γ-H2AX foci in MCF-7): yes
γ-H2AX Foci [4]: yes
γ-H2AX Foci [5]: yes
γ-H2AX Foci (γ-H2AX foci in T47D): yes
γ-H2AX Foci [6]: no
γ-H2AX Foci (γ-H2AX foci in MCF10a): no
MTD (Maximum tolerated dose): 75 mg/kg/day
IC50 (ER-positive cell lines): ~10 nM
expression of RNA for CYP1A1 (CYP1A1; [10]): increased expression
expression of RNA for CYP1A1 (CYP1A1; [11]): little expression
expression of RNA for CYP1B1 (CYP1B1; [10]): increased expression
expression of RNA for CYP1B1 (CYP1B1; [11]): little expression
% Growth Inhibition [d29] ([7]; AFP464 35 mg/kg i.v. Day 1, 3, 5, 15, 17, 19): 23%
Opt. Test/Control % [d] ([7]; AFP464 35 mg/kg i.v. Day 1, 3, 5, 15, 17, 19, optimum d26): 77 [d26] %
% Growth Inhibition [d29] ([7]; AFP464 70 mg/kg i.v. Day 1, 3, 5, 15): 15%
Opt. Test/Control % [d] ([7]; AFP464 70 mg/kg i.v. Day 1, 3, 5, 15, optimum d28): 85 [d28] %

SMILES: O=C(CCCCCCC(=O)Nc1ccccc1)NO [SAHA, suberoylanilide hydroxamic acid, reference compound]
IC100 (MDA-MB-231; SAHA in MDA-MB-231): 13.5 µM
IC100 (Hs578t; SAHA in Hs578T): 100 µM
ERα induction (ERα in MDA-MB-231): increases
MTD [8]: 175 mg/kg/day
Opt. Test/Control % [d] ([7]; Vorinostat 50 mg/kg p.o. Day −3 to −1, 12-14, optimum d26): 71 [d26] %
